The values below are quoted from earlier work in article PMC9694494, “Resveratrol/Hydrazone Hybrids: Synthesis and Chemopreventive Activity against Colorectal Cancer Cells” (Pharmaceutics, 2022).

The test system of one series is EC9706 cells. Also on record: method as in PMID 29475156. The settings on record: EC9706 esophageal carcinoma cells; read-out: IC50 antiproliferative activity; cited from earlier work.
The test system of another series is EC109 cells. Details: method as in PMID 29475156. The settings on record: EC109 esophageal carcinoma cells; read-out: IC50 antiproliferative activity; cited from earlier work.

Regarding `CCOc1cccc(/C=N/NC(=O)c2cccc(S(=O)(=O)N3CCOCC3)c2)c1O` [I], the figures for the IC50 in the series on EC9706 cells and in the series with EC109 cells were 1090 ± 30 nM and 2790 ± 450 nM, respectively.
